Results published in patent US20250025447A1, “TOLL-LIKE RECEPTOR AGONISTS AND ANTAGONISTS AND USES THEREOF” (Regents of the University of Minnesota, priority 2021, published 2025).
Entries after “also recorded” stand apart in the source; their conditions may differ. Like-named read-outs stand apart in the source and are kept apart here. Blank lines part the entries; values can stand above or below the molecule they belong to.

Experiments:
human TLR-8 [1] = target: T1, human TLR-8 (Homo sapiens, UniProt Q9NR97); assay: TLR-8 HEK-SEAP reporter competition (antagonist) assay against agonist compound 5; settings: agonist compound 5 at different concentrations, FIGS. 1A-D
T1 sequence (Q9NR97 27-1041): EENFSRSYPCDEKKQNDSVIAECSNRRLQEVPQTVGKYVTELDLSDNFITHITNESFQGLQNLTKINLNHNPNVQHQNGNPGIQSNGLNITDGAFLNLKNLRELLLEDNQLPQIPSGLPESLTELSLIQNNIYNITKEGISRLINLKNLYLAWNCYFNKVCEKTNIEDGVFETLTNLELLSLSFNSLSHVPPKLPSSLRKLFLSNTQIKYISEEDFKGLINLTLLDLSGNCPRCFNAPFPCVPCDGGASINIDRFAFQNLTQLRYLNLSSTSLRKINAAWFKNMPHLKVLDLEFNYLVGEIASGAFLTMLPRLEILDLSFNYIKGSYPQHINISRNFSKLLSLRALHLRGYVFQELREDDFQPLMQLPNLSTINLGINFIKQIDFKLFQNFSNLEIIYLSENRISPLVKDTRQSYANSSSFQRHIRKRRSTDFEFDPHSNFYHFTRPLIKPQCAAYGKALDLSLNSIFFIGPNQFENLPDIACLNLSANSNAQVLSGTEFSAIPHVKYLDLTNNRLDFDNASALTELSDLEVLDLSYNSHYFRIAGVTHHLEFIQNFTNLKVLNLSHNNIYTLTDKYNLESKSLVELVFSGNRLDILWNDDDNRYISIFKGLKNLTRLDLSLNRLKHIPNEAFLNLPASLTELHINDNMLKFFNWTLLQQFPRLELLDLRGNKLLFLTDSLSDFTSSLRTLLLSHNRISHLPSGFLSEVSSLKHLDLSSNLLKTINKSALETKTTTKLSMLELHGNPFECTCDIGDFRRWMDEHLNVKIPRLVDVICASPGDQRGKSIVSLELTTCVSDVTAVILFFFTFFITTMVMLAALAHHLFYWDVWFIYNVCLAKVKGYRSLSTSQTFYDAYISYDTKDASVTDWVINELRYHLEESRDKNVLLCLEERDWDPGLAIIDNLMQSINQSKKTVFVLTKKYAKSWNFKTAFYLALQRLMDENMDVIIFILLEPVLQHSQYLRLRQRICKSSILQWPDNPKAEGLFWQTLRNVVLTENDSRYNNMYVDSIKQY

human TLR-7 [2] = target: T2, human TLR-7 (Homo sapiens, UniProt Q9NYK1); assay: TLR-7/NF-κB/SEAP reporter assay in HEK293 cells, agonist mode
T2 sequence (Q9NYK1 27-1049): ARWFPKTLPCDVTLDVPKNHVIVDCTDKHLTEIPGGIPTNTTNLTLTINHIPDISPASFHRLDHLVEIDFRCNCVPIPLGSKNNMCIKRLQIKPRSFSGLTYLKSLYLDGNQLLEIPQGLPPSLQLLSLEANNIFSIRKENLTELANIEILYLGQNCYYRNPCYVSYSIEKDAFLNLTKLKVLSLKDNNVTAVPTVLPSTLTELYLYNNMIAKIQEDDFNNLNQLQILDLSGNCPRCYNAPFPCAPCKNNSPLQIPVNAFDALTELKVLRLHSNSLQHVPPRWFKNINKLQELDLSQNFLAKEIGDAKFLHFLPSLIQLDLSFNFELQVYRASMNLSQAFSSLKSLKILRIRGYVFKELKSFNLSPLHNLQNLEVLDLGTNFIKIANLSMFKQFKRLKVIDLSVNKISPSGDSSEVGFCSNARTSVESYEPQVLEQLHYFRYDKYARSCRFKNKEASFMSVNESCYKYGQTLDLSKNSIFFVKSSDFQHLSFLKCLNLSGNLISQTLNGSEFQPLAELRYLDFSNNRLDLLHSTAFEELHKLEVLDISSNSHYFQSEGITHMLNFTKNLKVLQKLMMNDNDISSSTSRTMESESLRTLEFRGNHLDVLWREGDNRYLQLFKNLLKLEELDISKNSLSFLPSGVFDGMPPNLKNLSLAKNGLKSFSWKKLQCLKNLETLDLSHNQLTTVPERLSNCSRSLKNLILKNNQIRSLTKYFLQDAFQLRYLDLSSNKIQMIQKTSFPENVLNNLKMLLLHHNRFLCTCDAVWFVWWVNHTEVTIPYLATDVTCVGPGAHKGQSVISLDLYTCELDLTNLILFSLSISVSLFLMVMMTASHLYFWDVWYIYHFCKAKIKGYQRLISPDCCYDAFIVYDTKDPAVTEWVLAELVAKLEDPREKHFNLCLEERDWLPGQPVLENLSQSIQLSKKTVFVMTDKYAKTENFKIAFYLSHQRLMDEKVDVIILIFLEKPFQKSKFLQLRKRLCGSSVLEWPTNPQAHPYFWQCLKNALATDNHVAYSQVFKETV

human TLR-8 [3] = target: T1, human TLR-8; assay: TLR-8/NF-κB/SEAP reporter assay in HEK293 cells, agonist mode; settings: HEK-SEAP reporter cells
[4] = test system: TNFα, IFNγ and IL-1β production in hPBMCs; assay: Competition assay of agonist-induced cytokine induction in hPBMCs (ELISA); assay type: cell-based, human
Method: Preparation and stimulation of PBMC. Human PBMC can be isolated from heparinized blood by standard density-gradient centrifugation over Ficoll-Paque Plus (Pharmacia, Uppsala, Sweden). Briefly, peripheral blood can be drawn by venipuncture into green top heparin tubes. The blood can be diluted 1:1 with PBS, and then layered upon Ficoll-Paque Plus in 50 ml centrifuge tubes. The tubes can be spun at 2000 rpm for 20 min, after which the buffy coats can be collected and washed twice in PBS. The isolated PBMC can be counted and added to the wells of a 24-well plate (5×10^5 cells/1 ml/well) in RPMI 1640 supplemented with 10% FBS, penicillin, streptomycin, sodium pyruvate, nonessential amino acids, and HEPES. TLR agonist 5 and TLR antagonist 3 can be prepared in DMSO and added to the wells (in triplicate) to reach the desired final concentrations. Some wells may only contain DMSO. After 24 h, culture supernatants can be collected, aliquoted, and frozen at −80° C. until analysis.
Quantitation of IL-1p, IFNγ, and TNFα. The amount of cytokines present in the supernatants after stimulation can be determined via Enzyme-Linked Immunosorbent Assay (ELISA) using a BioLegend ELISA MAX Deluxe Set for each cytokine tested. The assays can be conducted following the protocols provided by the assay set. Cell culture supernatants from hPBMCs can be used directly without dilution for the determination of IFNγ and TNFα but can be diluted accordingly for the IL-1β so the observed cytokine level could fall into the linear range of the assay.
These cytokines can be of particular interest due to the role they play in the driving Th1 differentiation of immune cells and development of cellular immunity.

human TLR-7 [5] = target: T2, human TLR-7; assay: TLR-7 HEK-SEAP reporter competition (antagonist) assay against agonist compound 5; settings: for TLR-7 antagonist activity against compound 5 (in words): agonist compound 5 at different concentrations, FIGS. 1A-D; for IC50: read-out: TLR-7 reporter cell activity, IC50 of antagonists, relative IC50 at fixed concentration of compound 5, 3 μM

TLR-8 antagonist activity against compound 5 (in words) (human TLR-8 [1]): reduction of TLR-8 activity | TLR-7 agonist activity (in words) (human TLR-7 [2]; HEK-SEAP reporter cells): showed agonist activity | EC50 (human TLR-7 [2]; read-out: TLR-7 reporter cell activity, EC50, HEK-SEAP reporter cells, agonist): 29.4 ± 2.2 µM
Structure (SMILES): COC(=O)c1ccc2c(c1)nc(N)c1nc(CC(C)C)n(CC(C)O)c12 (stereo not drawn) [Compound 1, methyl 4-amino-1-(2-hydroxypropyl)-2-isobutyl-1H-imidazo[4,5-c]quinoline-7-carboxylate]

TLR-8 agonist activity (in words) (human TLR-8 [3]): showed agonist activity | EC50 (human TLR-8 [3]; read-out: TLR-8 reporter cell activity, EC50, agonist): 18.8 ± 3.4 µM | EC50 (human TLR-7 [2]): 13.4 ± 1.5 µM | TLR-7 agonist activity (in words) (human TLR-7 [2]; HEK-SEAP reporter cells): showed agonist activity
Structure (SMILES): COC(=O)c1ccc2c(c1)nc(N)c1nc(CC3CC3)n(CC(C)O)c12 (stereo not drawn) [Compound 2, methyl 4-amino-2-(cyclopropylmethyl)-1-(2-hydroxypropyl)-1H-imidazo[4,5-c]quinoline-7-carboxylate]

IC50 (human TLR-7 [5]): 3.91 ± 0.15 µM
Structure (SMILES): COC(=O)c1ccc2c(c1)nc(N)c1nc(CC(C)C)n(Cc3ccc(CN)cc3)c12 [Compound 3, methyl 4-amino-1-(4-(aminomethyl)benzyl)-2-isobutyl-1H-imidazo[4,5-c]quinoline-7-carboxylate]
inhibition of TNFα production ([4]; agonist 5 induced, FIG. 4A): concentration-dependent reduction; also recorded: potent inhibitor | inhibition of IFNγ production ([4]; agonist 5 induced, FIG. 4B): concentration-dependent reduction; also recorded: potent inhibitor | inhibition of IL-1β production ([4]; agonist 5 induced, FIG. 4C): concentration-dependent reduction; also recorded: potent inhibitor | stimulatory activity in hPBMCs ([4]; compound itself): devoid of stimulatory activity | TLR-7 antagonist activity against compound 5 (in words) (human TLR-7 [5]): concentration-dependent shifts; also recorded: low μM antagonists

IC50 (human TLR-7 [5]): 4.1 ± 0.2 µM
Structure (SMILES): COC(=O)c1ccc2c(c1)nc(N)c1nc(CC3CC3)n(Cc3ccc(CN)cc3)c12 [Compound 4, methyl 4-amino-1-(4-(aminomethyl)benzyl)-2-(cyclopropylmethyl)-1H-imidazo[4,5-c]quinoline-7-carboxylate]
TLR-7 antagonist activity against compound 5 (in words) (human TLR-7 [5]): concentration-dependent shifts; also recorded: low μM antagonists
